One assay concerns the target T1, prolyl endopeptidase (Sus scrofa, UniProt P23687).
T1 construct: porcine kidney enzyme which was prepared according to methods of Walter and Yoshimoto et al; from tissue; host or cells: porcine kidney
The experiment in a line: Prolyl endopeptidase-inhibitory activity in vitro (porcine kidney enzyme, Z-Gly-Pro-p-nitroanilide substrate). In kind it is biochemical. Here is the method: A test compound (2 mg) was dissolved in DMSO (2 ml) and diluted to appropriate concentrations with DMSO. Z-Gly-Pro-p-nitroanilide (8 mg), a substrate was dissolved in dioxane (5 ml), water (27 ml) and 0.2 M phosphate buffer (pH 7.8, 40 ml). The substrate solution ([…]) was mixed with an inhibitor solution (3 ml) and followed by addition of above mentioned porcine kidney enzyme solution ([…]). Immediately after the mixing the UV absorbance at 405 nm was detected. The mixture was incubated at 37° C. for 20 min. and the UV absorbance was checked. A standard curve of absorbance (OD) vs. p-nitroaniline concentration was used to relate the absorbance to amount of substrate hydrolyzed. […] The inhibiting activity was obtained following the equation below. The IC50 value was estimated from the inhibitor concentration vs. inhibitory activity curve.
The percent inhibitory activity (%)=(ΔODc -ΔODs)/ΔODc ×100
ΔODs : ΔOD for test sample

The subject of assay [1] is brain prolyl endopeptidase. Description: Ex vivo prolyl endopeptidase inhibition in brain after oral administration. The following applies: rat, p.o.; for PEP Actively in brain (% of control): 10 mg/kg. The procedure: Ex vivo enzyme inhibition studies were performed to assess the degree of CNS availability and prolyl endpeptidase inhibition after oral administration. Compounds were dissolved in a minimal mount of ethanol (about 10% total volume) and made up to the appropriate volume with 1% polyoxyether sorbitan monooleate (Tween 80). Rats were dosed p.o. and at the appropriate times killed. The brains were removed, homogenised in the ice-cooled assay buffer, and centrifugated.

pIC50: −log10 of the molar value. Read-outs that look alike come from different tables or passages of the source.

T1 sequence (P23687 whole entry): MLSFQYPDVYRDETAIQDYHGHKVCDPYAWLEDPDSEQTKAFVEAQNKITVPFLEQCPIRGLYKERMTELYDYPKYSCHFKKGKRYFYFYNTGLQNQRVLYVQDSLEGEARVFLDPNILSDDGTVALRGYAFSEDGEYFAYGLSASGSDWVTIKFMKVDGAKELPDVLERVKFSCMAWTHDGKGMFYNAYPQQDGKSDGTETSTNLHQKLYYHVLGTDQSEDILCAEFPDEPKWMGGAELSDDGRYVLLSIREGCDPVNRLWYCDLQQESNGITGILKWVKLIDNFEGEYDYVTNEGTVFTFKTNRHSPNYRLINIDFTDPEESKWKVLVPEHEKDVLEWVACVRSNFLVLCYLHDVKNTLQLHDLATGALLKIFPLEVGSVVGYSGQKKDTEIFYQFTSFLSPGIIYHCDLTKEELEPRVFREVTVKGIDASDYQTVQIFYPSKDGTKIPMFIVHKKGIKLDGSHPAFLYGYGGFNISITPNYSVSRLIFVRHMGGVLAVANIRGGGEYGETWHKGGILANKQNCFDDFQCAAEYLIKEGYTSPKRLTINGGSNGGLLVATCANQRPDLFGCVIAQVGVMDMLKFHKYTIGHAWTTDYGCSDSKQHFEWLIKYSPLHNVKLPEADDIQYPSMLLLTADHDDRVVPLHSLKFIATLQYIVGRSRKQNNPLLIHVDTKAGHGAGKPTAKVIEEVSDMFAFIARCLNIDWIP

`O=C(c1nc2ccccc2s1)[C@@H]1CCCN1C(=O)[C@@H]1CCCN1C(=O)CCCc1ccccc1` [Example 1, 2-[1-{1-(4-Phenylbutanoyl)pyrrolidin-2(S)-ylcarbonyl}pyrrolidin-2(S)-ylcarbonyl]benzothiazole]: at prolyl endopeptidase (porcine kidney enzyme, pH 7.8, 37° C., 20 min, read-out: IC50 (converted)), the IC50 was 2.14 nM. Moreover, the “PEP Actively in brain (% of control)” value was 42 % of control in assay [1] (0.25 hr); 21 % of control in assay [1] (0.5 hr); 32 % of control in assay [1] (1 hr); 47 % of control in assay [1] (2 hr); 69 % of control in assay [1] (4 hr); 98 % of control in assay [1] (6 hr). In assay [1] (ex vivo, in words), the “brain prolyl endopeptidase inhibition (potency compared with SUAM-1221)” value is given as “more potent than SUAM-1221”. Further, in assay [1] (ex vivo, in words), the “duration of action on brain prolyl endopeptidase (compared with SUAM-1221)” value is reported as “longer duration of action”.

With `O=C(c1cocn1)[C@@H]1CCCN1C(=O)[C@@H]1Cc2ccccc2N1C(=O)OCc1ccccc1` [Example 3, 4-{1-(1-Benzyloxycarbonylindolin-2(S)-ylcarbonyl)pyrrolidin2(S) -ylcarbonyl}oxazole], the pIC50 on prolyl endopeptidase is 8.02.

In turn, `O=C(c1nccs1)[C@@H]1CCCN1C(=O)[C@@H]1Cc2ccccc2N1C(=O)OCc1ccccc1` [Example 8, 2-{1-(1-Benzyloxycarbonylindolin-2(S)-ylcarbonyl)pyrrolidin-2(S)-ylcarbonyl}thiazole] had a pIC50 against prolyl endopeptidase of 8.43.

The values above are taken from patent US5547978A, “Derivatives of pyrrolidin-2-ylcarbonylheterocyclic compounds” (priority 1994, dated 1996).
